According to US12194124B2, “Personal care compositions for treating odor causing bacteria and methods for the same” (Colgate-Palmolive Company, priority 2019, dated 2025):

Tested on: S. Haemolyticus
Test: Growth inhibition assay in 96-well plate, optical density of S. Haemolyticus
Type: cell-based, Staphylococcus haemolyticus
Protocol: The efficacy of 2-butyl octanol for selectively promoting, inhibiting, reducing, and/or treating bacterial growth was evaluated. Particularly, the efficacy of 2-butyl octanol for selectively promoting, inhibiting, reducing, and/or treating bacterial growth of Corynebacterium and Staphylococcus was evaluated. To evaluate the efficacy, an active solution was prepared by emulsifying 2-butyl octanol with a nonionic surfactant, namely, Polysorbate 80. The active solution included the 2-butyl octanol and the Polysorbate 80 in a ratio of about 83:17. Both positive controls (including no active solution) and negative controls (including no bacteria) were also prepared.
A 96-well plate was utilized to evaluate the growth of the respective bacteria at varying dilutions. Each of the wells of a 96-well plate was aseptically filled with about 100 μL of Tryptic Soy Broth (TSB). In the first well of each row, about 100 μL of either the active solution (including the 2-butyl octanol and Polysorbate 80) or the desired solvent for the respective positive and negative controls was added to thereby provide a total of about 200 μL in the first well of the each respective row. A multi-channel pipette was then utilized to prepare a two-fold dilution in each column. Specifically, a multi-channel pipette set to about 100 μL was utilized to mix and transfer about 100 μL of the 200 μL from the wells of the first column to the respective wells of a subsequent column. This was repeated for each of the remaining eleven columns. About 100 μL of the twelfth column was removed, thereby leaving about 100 μL in each of the 96 wells. […] Specifically, a phosphate buffered saline (PBS) was utilized for the negative control. About 100 μL of the respective bacteria adjusted to 0.1 optical density (OD) bacteria was added to all other wells. The well plate was then incubated overnight at about 37° C. in a growth inhibition assay machine. Measurements were taken at about one hour increments.

## CCCCCCC(CO)CCCC (stereo not shown) [2-butyl octanol, 2-butyl-1-octanol]
0.02% 2-Butyl Octanol, 1 Hour
  Measured Optical Density of S. Haemolyticus: 0.017
0.02% 2-Butyl Octanol, 2 Hour
  Measured Optical Density of S. Haemolyticus: 0.129
0.02% 2-Butyl Octanol, 3 Hour
  Measured Optical Density of S. Haemolyticus: 0.203
0.02% 2-Butyl Octanol, 4 Hour
  Measured Optical Density of S. Haemolyticus: 0.218
0.02% 2-Butyl Octanol, 5 Hour
  Measured Optical Density of S. Haemolyticus: 0.272
0.02% 2-Butyl Octanol, 6 Hour
  Measured Optical Density of S. Haemolyticus: 0.34
0.02% 2-Butyl Octanol, 7 Hour
  Measured Optical Density of S. Haemolyticus: 0.426
0.02% 2-Butyl Octanol, 8 Hour
  Measured Optical Density of S. Haemolyticus: 0.503
0.02% 2-Butyl Octanol, 9 Hour
  Measured Optical Density of S. Haemolyticus: 0.558
0.02% 2-Butyl Octanol, 10 Hour
  Measured Optical Density of S. Haemolyticus: 0.616
0.02% 2-Butyl Octanol, 11 Hour
  Measured Optical Density of S. Haemolyticus: 0.649
0.02% 2-Butyl Octanol, 12 Hour
  Measured Optical Density of S. Haemolyticus: 0.671
0.02% 2-Butyl Octanol, 13 Hour
  Measured Optical Density of S. Haemolyticus: 0.702
0.02% 2-Butyl Octanol, 14 Hour
  Measured Optical Density of S. Haemolyticus: 0.719
0.02% 2-Butyl Octanol, 15 Hour
  Measured Optical Density of S. Haemolyticus: 0.724
0.02% 2-Butyl Octanol, 16 Hour
  Measured Optical Density of S. Haemolyticus: 0.735
0.02% 2-Butyl Octanol, 17 Hour
  Measured Optical Density of S. Haemolyticus: 0.748
0.02% 2-Butyl Octanol, 18 Hour
  Measured Optical Density of S. Haemolyticus: 0.751
0.04% 2-Butyl Octanol, 1 Hour
  Measured Optical Density of S. Haemolyticus: 0.026
0.04% 2-Butyl Octanol, 2 Hour
  Measured Optical Density of S. Haemolyticus: 0.153
0.04% 2-Butyl Octanol, 3 Hour
  Measured Optical Density of S. Haemolyticus: 0.237
0.04% 2-Butyl Octanol, 4 Hour
  Measured Optical Density of S. Haemolyticus: 0.247
0.04% 2-Butyl Octanol, 5 Hour
  Measured Optical Density of S. Haemolyticus: 0.286
0.04% 2-Butyl Octanol, 6 Hour
  Measured Optical Density of S. Haemolyticus: 0.328
0.04% 2-Butyl Octanol, 7 Hour
  Measured Optical Density of S. Haemolyticus: 0.389
0.04% 2-Butyl Octanol, 8 Hour
  Measured Optical Density of S. Haemolyticus: 0.453
0.04% 2-Butyl Octanol, 9 Hour
  Measured Optical Density of S. Haemolyticus: 0.514
0.04% 2-Butyl Octanol, 10 Hour
  Measured Optical Density of S. Haemolyticus: 0.56
0.04% 2-Butyl Octanol, 11 Hour
  Measured Optical Density of S. Haemolyticus: 0.596
0.04% 2-Butyl Octanol, 12 Hour
  Measured Optical Density of S. Haemolyticus: 0.619
0.04% 2-Butyl Octanol, 13 Hour
  Measured Optical Density of S. Haemolyticus: 0.624
0.04% 2-Butyl Octanol, 14 Hour
  Measured Optical Density of S. Haemolyticus: 0.635
0.04% 2-Butyl Octanol, 15 Hour
  Measured Optical Density of S. Haemolyticus: 0.656
0.04% 2-Butyl Octanol, 16 Hour
  Measured Optical Density of S. Haemolyticus: 0.657
0.04% 2-Butyl Octanol, 17 Hour
  Measured Optical Density of S. Haemolyticus: 0.671
0.04% 2-Butyl Octanol, 18 Hour
  Measured Optical Density of S. Haemolyticus: 0.676
0.08% 2-Butyl Octanol, 1 Hour
  Measured Optical Density of S. Haemolyticus: 0.039
0.08% 2-Butyl Octanol, 2 Hour
  Measured Optical Density of S. Haemolyticus: 0.205
0.08% 2-Butyl Octanol, 3 Hour
  Measured Optical Density of S. Haemolyticus: 0.308
0.08% 2-Butyl Octanol, 4 Hour
  Measured Optical Density of S. Haemolyticus: 0.317
0.08% 2-Butyl Octanol, 5 Hour
  Measured Optical Density of S. Haemolyticus: 0.355
0.08% 2-Butyl Octanol, 6 Hour
  Measured Optical Density of S. Haemolyticus: 0.401
0.08% 2-Butyl Octanol, 7 Hour
  Measured Optical Density of S. Haemolyticus: 0.462
0.08% 2-Butyl Octanol, 8 Hour
  Measured Optical Density of S. Haemolyticus: 0.53
0.08% 2-Butyl Octanol, 9 Hour
  Measured Optical Density of S. Haemolyticus: 0.58
0.08% 2-Butyl Octanol, 10 Hour
  Measured Optical Density of S. Haemolyticus: 0.614
0.08% 2-Butyl Octanol, 11 Hour
  Measured Optical Density of S. Haemolyticus: 0.637
0.08% 2-Butyl Octanol, 12 Hour
  Measured Optical Density of S. Haemolyticus: 0.647
0.08% 2-Butyl Octanol, 13 Hour
  Measured Optical Density of S. Haemolyticus: 0.673
0.08% 2-Butyl Octanol, 14 Hour
  Measured Optical Density of S. Haemolyticus: 0.683
0.08% 2-Butyl Octanol, 15 Hour
  Measured Optical Density of S. Haemolyticus: 0.693
0.08% 2-Butyl Octanol, 16 Hour
  Measured Optical Density of S. Haemolyticus: 0.708
0.08% 2-Butyl Octanol, 17 Hour
  Measured Optical Density of S. Haemolyticus: 0.733
0.08% 2-Butyl Octanol, 18 Hour
  Measured Optical Density of S. Haemolyticus: 0.744
0.16% 2-Butyl Octanol, 1 Hour
  Measured Optical Density of S. Haemolyticus: 0.049
0.16% 2-Butyl Octanol, 2 Hour
  Measured Optical Density of S. Haemolyticus: 0.175
0.16% 2-Butyl Octanol, 3 Hour
  Measured Optical Density of S. Haemolyticus: 0.26
0.16% 2-Butyl Octanol, 4 Hour
  Measured Optical Density of S. Haemolyticus: 0.285
0.16% 2-Butyl Octanol, 5 Hour
  Measured Optical Density of S. Haemolyticus: 0.326
0.16% 2-Butyl Octanol, 6 Hour
  Measured Optical Density of S. Haemolyticus: 0.39
0.16% 2-Butyl Octanol, 7 Hour
  Measured Optical Density of S. Haemolyticus: 0.464
0.16% 2-Butyl Octanol, 8 Hour
  Measured Optical Density of S. Haemolyticus: 0.524
0.16% 2-Butyl Octanol, 9 Hour
  Measured Optical Density of S. Haemolyticus: 0.579
0.16% 2-Butyl Octanol, 10 Hour
  Measured Optical Density of S. Haemolyticus: 0.627
0.16% 2-Butyl Octanol, 11 Hour
  Measured Optical Density of S. Haemolyticus: 0.66
0.16% 2-Butyl Octanol, 12 Hour
  Measured Optical Density of S. Haemolyticus: 0.684
0.16% 2-Butyl Octanol, 13 Hour
  Measured Optical Density of S. Haemolyticus: 0.71
0.16% 2-Butyl Octanol, 14 Hour
  Measured Optical Density of S. Haemolyticus: 0.719
0.16% 2-Butyl Octanol, 15 Hour
  Measured Optical Density of S. Haemolyticus: 0.724
0.16% 2-Butyl Octanol, 16 Hour
  Measured Optical Density of S. Haemolyticus: 0.74
0.16% 2-Butyl Octanol, 17 Hour
  Measured Optical Density of S. Haemolyticus: 0.756
0.16% 2-Butyl Octanol, 18 Hour
  Measured Optical Density of S. Haemolyticus: 0.77
2-butyl octanol about 0.02 weight % to about 5.2 weight %
  growth of S. hominis: did not inhibit the growth of and/or promoted the growth of
5.2% 2-Butyl Octanol, 1 Hour
  Measured Optical Density of S. Haemolyticus: 0.198
5.2% 2-Butyl Octanol, 2 Hour
  Measured Optical Density of S. Haemolyticus: 0.254
5.2% 2-Butyl Octanol, 3 Hour
  Measured Optical Density of S. Haemolyticus: 0.345
5.2% 2-Butyl Octanol, 4 Hour
  Measured Optical Density of S. Haemolyticus: 0.383
5.2% 2-Butyl Octanol, 5 Hour
  Measured Optical Density of S. Haemolyticus: 0.396
5.2% 2-Butyl Octanol, 6 Hour
  Measured Optical Density of S. Haemolyticus: 0.384
5.2% 2-Butyl Octanol, 7 Hour
  Measured Optical Density of S. Haemolyticus: 0.403
5.2% 2-Butyl Octanol, 8 Hour
  Measured Optical Density of S. Haemolyticus: 0.477
5.2% 2-Butyl Octanol, 9 Hour
  Measured Optical Density of S. Haemolyticus: 0.549
5.2% 2-Butyl Octanol, 10 Hour
  Measured Optical Density of S. Haemolyticus: 0.603
5.2% 2-Butyl Octanol, 11 Hour
  Measured Optical Density of S. Haemolyticus: 0.622
5.2% 2-Butyl Octanol, 12 Hour
  Measured Optical Density of S. Haemolyticus: 0.639
5.2% 2-Butyl Octanol, 13 Hour
  Measured Optical Density of S. Haemolyticus: 0.654
5.2% 2-Butyl Octanol, 14 Hour
  Measured Optical Density of S. Haemolyticus: 0.681
5.2% 2-Butyl Octanol, 15 Hour
  Measured Optical Density of S. Haemolyticus: 0.699
5.2% 2-Butyl Octanol, 16 Hour
  Measured Optical Density of S. Haemolyticus: 0.722
5.2% 2-Butyl Octanol, 17 Hour
  Measured Optical Density of S. Haemolyticus: 0.742
5.2% 2-Butyl Octanol, 18 Hour
  Measured Optical Density of S. Haemolyticus: 0.752
